Experiment [1] in a line: Inhibition of PRL-3-mediated cell invasion in human DLD1 cells after 20 hrs using crystal violet staining by Matrigel invasion assay.
Experiment [2] is described as follows: Inhibition of PRL-3-mediated cell migration in human DLD1 cells after 15 hrs by crystal violet staining based microscopic assay.

For one compound, IC50 results are on record in BindingDB's records for doi:10.1016/j.bmcl.2011.11.008 (Korea Research Institute of Bioscience and Biotechnology, 2011).

By IC50 is commonly meant the concentration that inhibits the measured activity by half. Lower therefore signals inhibition by little substance.

On to `Cc1cc(O)c2c(c1)C(=O)c1cc(O)cc(O)c1C2=O` [1,3,8-trihydroxy-6-methylanthra-9,10-quinone], for which the IC50 in experiment [1] is 35 µM; in experiment [2], 28 µM.
